The source of these data is US20240368096A1 (Enanta Pharmaceuticals, Inc., priority 2022, published 2024).

SMILES strings stand for the structures.

In the assay the test system is HBV. Description: HBV infection in HepG2-NTCP cells (HBeAg AlphaLISA in supernatants). The assay is classed as cell-based. The conditions noted are these: Hepatitis B virus, 192 h; HBV infection of HepG2-NTCP cells; HBeAg in supernatants at day 8 post infection; read-out: Cellular EC50. Summed up:
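HepG2-NTCP A3 cells were pre-incubated 2 h with 3-fold serially diluted compounds, then infected with HBV at 2000 GE/cell with 4% PEG (0.5% DMSO final). After washing on day 1, cells stayed in 2.5% DMSO medium; supernatant HBeAg measured by AlphaLISA on day 8, EC50 versus DMSO controls.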
Regarding `CCCCC[C@H](C)Oc1cc2c(cc1-c1cc(F)c(C(=O)O)s1)S(=O)(=O)N(C)[C@H](C1CCCCC1)CN2c1ccccc1` [Example 490], the EC50 was less than 100 nM.

On to `CN1[C@H](C2CCCCC2)CN(c2ccccc2)c2cc(OCc3ccc(OC(F)(F)F)cc3)c(-c3cc(F)c(C(=O)O)s3)cc2S1(=O)=O` [Example 507], for which the EC50 is less than 100 nM. As for `CN1[C@H](C2CCCCC2)CN(c2cc(F)cc(F)c2F)c2cc(Cl)c(-c3ccc(F)c(C(=O)O)c3)cc2S1(=O)=O` [Example 299], the figure is 100 to 1000 nM. Under `CN1[C@H](C2CCCC2)CN(c2ccccc2)c2cc(Cl)c(-c3ccc(F)c(C(=O)O)c3)cc2S1(=O)=O` [Example 66] stands 100 to 1000 nM; under `CC(C)Oc1cccc(COc2cc3c(cc2-c2cc(F)c(C(=O)O)s2)S(=O)(=O)N(C)[C@H](C2CCCCC2)CN3c2ccccc2)c1` [Example 506], less than 100 nM. As for `CC(=O)N1CCC(c2cc3c(cc2-c2ccc(F)c(C(=O)O)c2)S(=O)(=O)N(C)[C@H](C2CCCCC2)CN3c2ccccc2)CC1` [Example 597], the figure is more than 1000 nM.

In the case of `CC(C)C[C@@H]1CN(c2ccccc2)c2cc(Cl)c(-c3ccc(N4CCCCC4)c(C(=O)O)c3)cc2S(=O)(=O)N1C` [Example 219, (R)-5-(7-chloro-3-isobutyl-2-methyl-1,1-dioxido-5-phenyl-2,3,4,5-tetrahydrobenzo[f][1,2,5]thiadiazepin-8-yl)-2-(piperidin-1-yl)benzoic acid], the EC50 was more than 1000 nM. As for `CC(C)OCCOc1cc2c(cc1-c1cc(F)c(C(=O)O)s1)S(=O)(=O)N(C)[C@H](C1CCCCC1)CN2c1ccccc1` [Example 497], the figure is less than 100 nM; as for `CN1[C@H](C2CCC2)CN(c2ccccc2)c2cc(Cl)c(-c3cc(F)c(C(=O)O)s3)cc2S1(=O)=O` [Example 121], less than 100 nM; as for `CO[C@H]1C[C@@H](N2C[C@@H](CC(C)C)N(C)S(=O)(=O)c3cc(-c4ccc(F)c(C(=O)O)c4)c(Oc4ccccc4F)cc32)C1` [Example 473], 100 to 1000 nM. In the case of `CN1[C@H](C2CCCCC2)CN(c2ccccc2)c2cc(OCC34CC(CO3)C4)c(-c3ccc(F)c(C(=O)O)c3)cc2S1(=O)=O` [Example 371], the EC50 was less than 100 nM. Under `COCCOc1cc2c(cc1-c1cc(C)c(C(=O)O)s1)S(=O)(=O)N(C)[C@H](C1CCCCC1)CN2c1ccccc1` [Example 499] stands less than 100 nM; under `CC(C)C[C@@H]1CN(c2ccccc2)c2cc(O[C@H]3CCOC3)c(-c3ccc(F)c(C(=O)O)c3)cc2S(=O)(=O)N1C` [Example 446], 100 to 1000 nM; under `CN1[C@H](C2CCCCC2)CN(c2ccccc2)c2cc(C#CC(C)(C)O)c(-c3ccc(F)c(C(=O)O)c3)cc2S1(=O)=O` [Example 603], 100 to 1000 nM. `CC(C)C[C@@H]1CN(c2ccccc2)c2cc(OCC(F)(F)F)c(-c3ccc(F)c(C(=O)O)c3)cc2S(=O)(=O)N1C` [Example 453]: the half-maximal effective concentration (EC50) was less than 100 nM. As for `CN1[C@H](C2CCCCC2)CN(CC2CC2)c2cc(Cl)c(-c3ccc(F)c(C(=O)O)c3)cc2S1(=O)=O` [Example 319, (R)-5-(7-chloro-3-cyclohexyl-5-(cyclopropylmethyl)-2-methyl-1,1-dioxido-2,3,4,5-tetrahydrobenzo[f][1,2,5]thiadiazepin-8-yl)-2-fluorobenzoic acid], the figure is 100 to 1000 nM; as for `CN1[C@H](C2CCCCC2)CN(c2ccccc2)c2cc(OCc3ccccc3)c(-c3ccc(F)c(C(=O)O)c3)cc2S1(=O)=O` [Example 332, (R)-5-(7-(benzyloxy)-3-cyclohexyl-2-methyl-1,1-dioxido-5-phenyl-2,3,4,5-tetrahydrobenzo[f][1,2,5]thiadiazepin-8-yl)-2-fluorobenzoic acid], less than 100 nM; as for `CN1[C@H](C2CCCCC2)CN(c2ccc3c(c2)OC(F)(F)O3)c2cc(Cl)c(-c3ccc(F)c(C(=O)O)c3)cc2S1(=O)=O` [Example 314], less than 100 nM. For the compound `CC(C)CCCOc1cc2c(cc1-c1ccc(F)c(C(=O)O)c1)S(=O)(=O)N(C)[C@H](C1CCCCC1)CN2c1ccccc1` [Example 360], the concentration giving a half-maximal response (EC50) was less than 100 nM. As for `CC(C)Oc1cc2c(cc1-c1ccc(F)c(C(=O)O)c1)S(=O)(=O)N(C)[C@H](C1CCCCC1)CN2c1ccccc1` [Example 357], the concentration for a half-maximal effect (EC50) is less than 100 nM. Take `O=C(O)c1cccc(-c2cc3c(cc2F)N(c2ccccc2)C[C@@H]2C[C@H](C(F)(F)F)CN2S3(=O)=O)c1` [Example 11]: the EC50 is more than 1000 nM. Under `Cc1cc(COc2cc3c(cc2-c2cc(F)c(C(=O)O)s2)S(=O)(=O)N(C)[C@H](C2CCCCC2)CN3c2ccccc2)c(C)s1` [Example 492] stands less than 100 nM; under `CCCC[C@@H]1CN(c2ccccc2)c2cc(N(C)C)c(-c3ccc(F)c(C(=O)O)c3)cc2S(=O)(=O)N1C` [Example 524], less than 100 nM; under `CN1[C@H](C2CCCCC2)CN(c2ccccc2)c2cc(Cl)c(-c3cc(C(=O)O)ccn3)cc2S1(=O)=O` [Example 139, (R)-2-(7-chloro-3-cyclohexyl-2-methyl-1,1-dioxido-5-phenyl-2,3,4,5-tetrahydrobenzo[f][1,2,5]thiadiazepin-8-yl)isonicotinic acid], 100 to 1000 nM. As for `CC(C)COC(=O)Nc1c(Cl)cc(-c2cc3c(cc2Cl)N(c2ccccc2)C[C@@H](C2CCCCC2)N(C)S3(=O)=O)cc1C(=O)O` [Example 279], the figure is less than 100 nM; as for `CC(C)C[C@@H]1CN(C23CC(C2)C3)c2cc(Oc3ccccc3F)c(-c3ccc(F)c(C(=O)O)c3)cc2S(=O)(=O)N1C` [Example 469], 100 to 1000 nM; as for `CC(=O)NS(=O)(=O)c1cccc(-c2cc3c(cc2Cl)N(c2ccccc2)C[C@@H](CC(C)C)N(C)S3(=O)=O)c1` [Example 220, (R)—N-((3-(7-chloro-3-isobutyl-2-methyl-1,1-dioxido-5-phenyl-2,3,4,5-tetrahydrobenzo[f][1,2,5]thiadiazepin-8-yl)phenyl)sulfonyl)acetamide], 100 to 1000 nM.

In the case of `CN1[C@H](C2CCCCC2)CN(c2ccccc2)c2cc(Cl)c(-c3cccc(C(=O)O)c3O)cc2S1(=O)=O` [Example 148], the EC50 is 100 to 1000 nM. With `CC(C)C[C@@H]1CN(c2ccccc2)c2cc(OC34CC5CC(CC(C5)C3)C4)c(-c3ccc(F)c(C(=O)O)c3)cc2S(=O)(=O)N1C` [Example 441], the 50% effective concentration (EC50) was less than 100 nM. As for `CN1[C@H](C2CCCCC2)CN(c2ccccc2)c2cc(OC3CC4(CC4)C3)c(-c3ccc(F)c(C(=O)O)c3)cc2S1(=O)=O` [Example 385], the figure is less than 100 nM; as for `CC(C)C[C@@H]1CN(c2ccccc2)c2cc(N3CCc4cccc(F)c43)c(-c3ccc(Cl)c(C(=O)O)c3)cc2S(=O)(=O)N1C` [Example 553], 100 to 1000 nM; as for `CC(C)C[C@@H]1CN(c2ccccc2)c2cc(Oc3ccc(F)cc3)c(-c3ccc(F)c(C(=O)O)c3)cc2S(=O)(=O)N1C` [Example 430], less than 100 nM.

Regarding `CN1[C@H](C2CCCCC2)CN(c2ccccc2)c2cc(Cl)c(-c3cc(C(=O)O)cc(C(F)(F)F)c3)cc2S1(=O)=O` [Example 142, (R)-3-(7-chloro-3-cyclohexyl-2-methyl-1,1-dioxido-5-phenyl-2,3,4,5-tetrahydrobenzo[f][1,2,5]thiadiazepin-8-yl)-5-(trifluoromethyl)benzoic acid], the EC50 fell in the range of 100 to 1000 nM. As for `CC1CN(c2ccccc2)c2cc(F)c(-c3ccc(F)c(C(=O)O)c3)cc2S(=O)(=O)N1C` (centres unmarked) [Example 1, 2-fluoro-5-(7-fluoro-2,3-dimethyl-1,1-dioxido-5-phenyl-2,3,4,5-tetrahydrobenzo[f][1,2,5]thiadiazepin-8-yl)benzoic acid], the figure is more than 1000 nM; as for `CN1[C@H](C2CCCCC2)CN(c2ccccc2)c2cc(Cl)c(-c3cc(C(=O)O)c4nccn4c3)cc2S1(=O)=O` [Example 211], 100 to 1000 nM; as for `CC(C)C[C@@H]1CN([C@H]2CCOC2)c2cc(Oc3ccccc3F)c(-c3ccc(F)c(C(=O)O)c3)cc2S(=O)(=O)N1C` [Example 474], 100 to 1000 nM. Under `CO[C@@H](C)[C@@H]1CN(c2ccccc2)c2cc(Cl)c(-c3ccc(F)c(C(=O)O)c3)cc2S(=O)(=O)N1C` [Example 88, 5-((S)-7-chloro-3-((S)-1-methoxyethyl)-2-methyl-1,1-dioxido-5-phenyl-2,3,4,5-tetrahydrobenzo[f][1,2,5]thiadiazepin-8-yl)-2-fluorobenzoic acid] stands more than 1000 nM; under `CC(C)C[C@@H]1CN(c2ccccc2)c2cc(Cl)c(-c3ccc4oncc4c3)cc2S(=O)(=O)N1C` [Example 185], 100 to 1000 nM. Under `CN1[C@H](C2CCCCC2)CN(c2ccccc2)c2cc(OC3CN(C(=O)OC(C)(C)C)C3)c(-c3ccc(F)c(C(=O)O)c3)cc2S1(=O)=O` [Example 398] stands less than 100 nM. As for `CC(C)C[C@@H]1CN(c2ccccc2)c2cc(Cl)c(-c3cccc(C(=O)C(=O)O)c3)cc2S(=O)(=O)N1C` [Example 205, (R)-2-(3-(7-chloro-3-isobutyl-2-methyl-1,1-dioxido-5-phenyl-2,3,4,5-tetrahydrobenzo[f][1,2,5]thiadiazepin-8-yl)phenyl)-2-oxoacetic acid], the EC50 was less than 100 nM. Under `CN1[C@H](C2CCCCC2)CN(c2ccccc2)c2cc(OCCCc3cscn3)c(-c3ccc(F)c(C(=O)O)c3)cc2S1(=O)=O` [Example 347] stands less than 100 nM; under `CN1[C@H](C2CCCCC2)CN(c2ccccc2)c2cc(OCC3CC(F)(F)C3)c(-c3ccc(F)c(C(=O)O)c3)cc2S1(=O)=O` [Example 363], less than 100 nM; under `CN1[C@H](c2ccc(F)cc2)CN(c2ccccc2)c2cc(Cl)c(-c3ccc(F)c(C(=O)O)c3)cc2S1(=O)=O` [Example 56], 100 to 1000 nM. Regarding `COc1ccc(N2C[C@@H](C3CCCCC3)N(C)S(=O)(=O)c3cc(-c4ccc(F)c(C(=O)O)c4)c(Cl)cc32)cc1` [Example 306, (R)-5-(7-chloro-3-cyclohexyl-5-(4-methoxyphenyl)-2-methyl-1,1-dioxido-2,3,4,5-tetrahydrobenzo[f][1,2,5]thiadiazepin-8-yl)-2-fluorobenzoic acid], the EC50 is 100 to 1000 nM.
